Test results: the NIST ThermoML archive (doi:10.1021/je501054c)
“And” between values parts separate entries of the source, which are not always exact repeats. Identical values can stand only once.

Experiments:
[1] = mn = molality of the nth substance listed, in mol/kg; conditions: 100 kPa, Liquid; for viscosity: Capillary tube (Ostwald / Ubbelohde) method; for mass density: Vibrating tube method
[2] = 100 kPa, Liquid; for mass density: Vibrating tube method

CCCCCCn1cc[n+](C)c1.[Cl-] [1-hexyl-3-methylimidazolium chloride] + CC#N
[1]
Conditions	mass density, 298.15 K [kg/m3]	mass density, 303.15 K [kg/m3]	mass density, 308.15 K [kg/m3]	mass density, 313.15 K [kg/m3]	viscosity, 298.15 K [mPa·s]
m1 = 0.0205	777.74	772.53	764.33	756.52	–
m1 = 0.022	–	–	–	–	0.3485
m1 = 0.041	778.81	773.62	765.43	757.67	–
m1 = 0.0461	–	–	–	–	0.3524
m1 = 0.06	779.78	774.61	766.44	758.72	–
m1 = 0.0622	–	–	–	–	0.3551
m1 = 0.0809	780.84	775.69	767.53	759.86	–
m1 = 0.0814	–	–	–	–	0.3589
m1 = 0.1002	781.8	776.66	768.53	760.89	–
m1 = 0.1057	–	–	–	–	0.3631
m1 = 0.1197	782.75	777.64	769.5	761.94	–
m1 = 0.123	–	–	–	–	0.367
m1 = 0.1374	783.62	778.51	770.4	762.83	–
m1 = 0.1423	–	–	–	–	0.3696
m1 = 0.1544	784.44	779.33	771.23	763.72	–
m1 = 0.1606	–	–	–	–	0.3741
m1 = 0.1788	785.56	780.48	772.4	764.93	–
m1 = 0.181	–	–	–	–	0.3776
m1 = 0.1969	786.4	781.33	773.26	765.84	–
m1 = 0.2045	–	–	–	–	0.3813

CCC[n+]1ccn(C)c1.[Br-] [1-methyl-3-propylimidazolium bromide] + CC#N
[1]
Conditions	mass density, 298.15 K [kg/m3]	mass density, 303.15 K [kg/m3]	mass density, 308.15 K [kg/m3]	mass density, 313.15 K [kg/m3]	viscosity, 298.15 K [mPa·s]
m1 = 0.0248	778.67	773.46	763.49	757.41	–
m1 = 0.0251	–	–	–	–	0.3488
m1 = 0.0422	–	–	–	–	0.3525
m1 = 0.0423	780.09	774.88	764.92	758.84	–
m1 = 0.0636	781.79	776.59	766.63	760.57	–
m1 = 0.0644	–	–	–	–	0.3573
m1 = 0.081	783.18	777.98	768.02	761.96	–
m1 = 0.0816	–	–	–	–	0.3607
m1 = 0.1036	784.95	779.74	769.8	763.74	–
m1 = 0.1051	–	–	–	–	0.3633
m1 = 0.123	786.44	781.24	771.31	765.27	–
m1 = 0.1245	–	–	–	–	0.3675
m1 = 0.1437	788.02	782.86	772.93	766.87	–
m1 = 0.1461	–	–	–	–	0.3724
m1 = 0.1636	789.52	784.35	774.44	768.39	–
m1 = 0.1667	–	–	–	–	0.3771
m1 = 0.1835	791.02	785.84	775.93	769.89	–
m1 = 0.1873	–	–	–	–	0.38
m1 = 0.2042	792.57	787.39	777.47	771.44	–
m1 = 0.2082	–	–	–	–	0.3844

CCCCCn1cc[n+](C)c1.[Br-] [1-pentyl-3-methylimidazolium bromide] + CC#N
[1]
Conditions	mass density, 298.15 K [kg/m3]	mass density, 303.15 K [kg/m3]	mass density, 308.15 K [kg/m3]	mass density, 313.15 K [kg/m3]	viscosity, 298.15 K [mPa·s]
m1 = 0.03	779.11	770.63	762.52	755.09	–
m1 = 0.0301	–	–	–	–	0.3532
m1 = 0.0509	780.82	772.34	764.26	756.83	–
m1 = 0.0511	–	–	–	–	0.3605
m1 = 0.0721	782.52	774.06	765.99	758.59	–
m1 = 0.0726	–	–	–	–	0.366
m1 = 0.1016	784.87	776.42	768.38	760.99	–
m1 = 0.1026	–	–	–	–	0.3724
m1 = 0.123	786.55	778.11	770.11	762.71	–
m1 = 0.1245	–	–	–	–	0.3782
m1 = 0.1434	788.15	779.71	771.7	764.33	–
m1 = 0.1455	–	–	–	–	0.3814
m1 = 0.1628	789.62	781.22	773.22	765.86	–
m1 = 0.1655	–	–	–	–	0.3873
m1 = 0.1944	792	783.62	775.67	768.32	–
m1 = 0.1983	–	–	–	–	0.3928
m1 = 0.211	793.26	784.87	776.92	769.58	–
m1 = 0.2155	–	–	–	–	0.3975
m1 = 0.2313	794.76	786.39	778.44	771.12	–
m1 = 0.2367	–	–	–	–	0.4016

CCCCCCn1cc[n+](C)c1.[Br-] [3-hexyl-1-methyl-1H-imidazolium bromide] + CC#N
[1]
Conditions	mass density, 298.15 K [kg/m3]	mass density, 303.15 K [kg/m3]	mass density, 308.15 K [kg/m3]	mass density, 313.15 K [kg/m3]	viscosity, 298.15 K [mPa·s]
m1 = 0.0208	778.37	773.15	763.14	754.27	–
m1 = 0.0209	–	–	–	–	0.353
m1 = 0.0449	780.33	775.12	765.12	756.27	–
m1 = 0.0451	–	–	–	–	0.3625
m1 = 0.0648	781.93	776.74	766.75	757.91	–
m1 = 0.0653	–	–	–	–	0.367
m1 = 0.0817	783.29	778.1	768.12	759.29	–
m1 = 0.0824	–	–	–	–	0.372
m1 = 0.1001	784.72	779.55	769.58	760.76	–
m1 = 0.1011	–	–	–	–	0.3774
m1 = 0.124	786.57	781.42	771.48	762.66	–
m1 = 0.1255	–	–	–	–	0.3842
m1 = 0.1424	788	782.85	772.92	764.1	–
m1 = 0.1445	–	–	–	–	0.3882
m1 = 0.1649	789.72	784.57	774.66	765.86	–
m1 = 0.1676	–	–	–	–	0.3937
m1 = 0.1832	791.1	785.97	776.06	767.28	–
m1 = 0.1866	–	–	–	–	0.3982
m1 = 0.2011	792.44	787.33	777.41	768.63	–
m1 = 0.2052	–	–	–	–	0.4022

CC#N [acetonitrile]
Conditions	viscosity [mPa·s]
[2], 298.15 K, Capillary tube (Ostwald / Ubbelohde) method	0.343

[2]
Conditions	mass density
298.15 K	776.65 kg/m3
303.15 K	771.43 kg/m3 and 768.14 kg/m3
308.15 K	761.45 kg/m3 [middle of 4 runs]
313.15 K	755.34 kg/m3 [middle of 4 runs]
